Laboratory results from patent publication US11912693B2, “Compounds for modulating S1P1 activity and methods of using the same” (TREVENA, INC., priority 2017, dated 2024).

Experiments:
[1] = target: T1, human sphingosine-1-phosphate receptor 1 (S1P1) (Homo sapiens (Human), UniProt P21453); assay: β-Arrestin2 recruitment assay (PathHunter), S1P1 CHO-K1 cells; type: cell-based; settings: for hS1P1 B-arrestin2 pEC50: β-arrestin2 recruitment, S1P1 CHO-K1 cells; for Emax: CHO-K1, read-out: hS1P1 B-arrestin2 SPAN
Method in brief: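 Enzyme-fragment complementation read-out: agonist-driven β-arrestin2 binding to ProLink-tagged human S1P1 in stable CHO-K1 cells restores β-galactosidase, measured 1 h at room temperature after a 60 min 37° C. compound incubation. Potency as pEC50, efficacy relative to fingolimod (SPAN).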
Target sequence in this assay (P21453 whole entry, looked up, the tested form may be a part): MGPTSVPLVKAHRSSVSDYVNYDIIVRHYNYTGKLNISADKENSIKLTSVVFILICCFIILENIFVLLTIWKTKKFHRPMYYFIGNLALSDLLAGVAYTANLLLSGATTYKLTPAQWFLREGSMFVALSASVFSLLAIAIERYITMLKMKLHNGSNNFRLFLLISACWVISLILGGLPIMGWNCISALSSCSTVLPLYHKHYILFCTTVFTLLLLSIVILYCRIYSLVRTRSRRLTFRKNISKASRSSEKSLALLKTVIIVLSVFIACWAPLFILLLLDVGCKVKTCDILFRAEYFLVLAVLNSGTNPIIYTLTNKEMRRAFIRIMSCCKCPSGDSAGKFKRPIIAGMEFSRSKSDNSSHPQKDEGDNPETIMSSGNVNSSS
Target sequence in this assay (P32121 whole entry partner, looked up, the tested form may be a part): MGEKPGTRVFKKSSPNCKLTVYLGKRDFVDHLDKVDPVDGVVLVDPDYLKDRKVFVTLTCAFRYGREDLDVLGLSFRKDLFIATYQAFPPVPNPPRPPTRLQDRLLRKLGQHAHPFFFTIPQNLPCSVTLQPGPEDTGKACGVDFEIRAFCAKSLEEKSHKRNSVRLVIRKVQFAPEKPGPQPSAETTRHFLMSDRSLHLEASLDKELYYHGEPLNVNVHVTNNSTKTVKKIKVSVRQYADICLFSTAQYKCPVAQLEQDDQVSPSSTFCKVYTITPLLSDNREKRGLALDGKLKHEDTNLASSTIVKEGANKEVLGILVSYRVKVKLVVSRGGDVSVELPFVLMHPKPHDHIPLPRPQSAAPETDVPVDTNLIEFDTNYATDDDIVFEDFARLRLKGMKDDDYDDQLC

[2] = target: T1, human sphingosine-1-phosphate receptor 1 (S1P1); assay: Inhibition of cAMP production (HTRF cAMP HiRange), S1P1 CHO-K1 cells; type: cell-based; settings: for hS1P1 cAMP pEC50: inhibition of cAMP production, S1P1 CHO-K1 cells; for Emax: CHO-K1, read-out: hS1P1 cAMP SPAN
Method in brief: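 CHO-K1 cells stably co-expressing human S1P1 (C-terminal Prolink tag) and EA-β-arrestin2 were grown in AssayComplete Media 6 at 37° C. and 5% CO2, plated, and incubated overnight. Agonist-driven inhibition of intracellular cAMP was read by TR-FRET with the HTRF cAMP HiRange kit on a PheraStar reader. Potency is pEC50, and efficacy (SPAN) is normalized to fingolimod.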
Target sequence in this assay (P21453 whole entry, looked up, the tested form may be a part): as the sequence (P21453 whole entry, looked up, the tested form may be a part) above

[3] = target: human sphingosine-1-phosphate receptor 2 (S1P2) (Homo sapiens (Human), UniProt O95136); assay: Inositol monophosphate production (IP-one TB kit), S1P2 CHO-K1 cells; type: cell-based; settings: for hS1P2 IP-one pEC50: inositol monophosphate accumulation
Protocol: (§1) Stable clonal Chinese hamster ovary K1 (CHO-K1) cells co-expressing EA-β-arrestin2 and the human sphingosine-1-phosphate receptor 2 (NM_004230.3, S1P2), human sphingosine-1-phosphate receptor 3 (NM_005226, S1P3) and sphingosine-1-phosphate receptor 5 (NM_001166215.1, S1P5) with a C-terminal Prolink™ tag were purchased from DiscoverX corporation (S1P2: Cat #93-0256C2, S1P3: Cat #93-0217C2, S1P5: Cat #93-0583C2).
(§2) Cell lines were cultured in AssayComplete™ Media 6 (DiscoverX Corporation, Cat #: 920018GF2) at 37° C. and 5% CO2 in a humidified CO2 and temperature-controlled incubator. To begin assay plating, cells were washed with dulbecco's phosphate buffered saline (CellGro, Cat #: 21-031-CV) and lifted from the culturing flask by incubation (37° C., 5 min) with CellStripper (Cellgro, Cat #: 25-056-CI). […] Plated cells were incubated overnight at 37° C. and 5% CO2 in a humidified CO2 and temperature-controlled incubator.
S1P2 Agonist-promoted G-protein responses were determined by measuring changes in intracellular inositol monophosphate using the IP-one TB kit (CisBio, Cat #: 62IPAPEJ) based on time-resolved fluorescence resonance energy transfer (TR-FRET) technology. AssayComplete™ Cell Plating 2 Reagent was removed and replaced with 1× IP-one stimulation buffer (as per manufacturer's instructions) along with test or control compounds at the desired concentrations. Following a 60-minute incubation at 37° C. and 5% CO2 in a humidified CO2 and temperature-controlled incubator, the components of the IP-one TB kit were added as per the manufacturer's instructions. After an hour incubation at room temperature, plates were analyzed by a BMG PheraStar microplate reader.
(§3) The tables below include the efficacy of the compound as compared to a positive control, referred to as “SPAN”. These values are normalized to fingolimod, a known agonist of the sphingosine-1-phosphate 3 and 5 receptor or CYM5520, a known agonist of the sphingosine-1-phosphate 2 receptor. The tables also include potency values (pEC50) for modulating discrete receptor-mediated activities (inhibition of cAMP production or inositol monophosphate accumulation).

[4] = target: human sphingosine-1-phosphate receptor 3 (S1P3) (Homo sapiens (Human), UniProt Q99500); assay: Inhibition of cAMP production (HTRF), S1P3 CHO-K1 cells; type: cell-based; settings: for hS1P3 cAMP pEC50: inhibition of cAMP production
Protocol: as §1, §2
(§4) S1P3 and S1P5 Agonist-promoted G-protein responses were determined by measuring changes in intracellular cAMP using the HTRF® cAMP HiRange kit (CisBio, Cat #: 62AM6PEJ) based on time-resolved fluorescence resonance energy transfer (TR-FRET) technology. […] Following a 30-minute room temperature incubation the components of the cAMP HiRange kit were added as per the manufacturer's instructions. After an hour incubation at room temperature, plates were analyzed by a BMG PheraStar microplate reader.
as §3

[5] = target: sphingosine-1-phosphate receptor 5 (S1P5) (Homo sapiens (Human), UniProt Q9H228); assay: Inhibition of cAMP production (HTRF), S1P5 CHO-K1 cells; type: cell-based; settings: for hS1P5 cAMP pEC50: inhibition of cAMP production
Protocol: as §1, §2, §4, §3

[6] = system: paclitaxel induced peripheral neuropathy; assay: Reversal of allodynia induced by paclitaxel in mice (s.c. or p.o., von Frey frequency method); type: in vivo, c57bl/6 mice; settings: Mus musculus; for inhibition in vivo at 3 mg/kg: po, 1 h, 3 mg/kg p.o., tested 60 min after dosing, read-out: Screen @ 3 mg/kg po (% MPE)
Method in brief: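 Neuropathy was induced in mice by paclitaxel (6 mg/kg i.p., days 1, 3, 5, 7) or oxaliplatin (4 mg/kg i.p., days 1-5), with re-testing about 14 days later. Compounds were given s.c. (tested at 30 min) or p.o. (tested at 60 min; paclitaxel only). A 0.4 g von Frey filament was applied ten times per paw, and % non-response was converted to % MPE.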

[7] = efficacy (SPAN) normalized to fingolimod
[8] = efficacy normalized to fingolimod

Sequence of human sphingosine-1-phosphate receptor 2 (S1P2) (O95136 whole entry): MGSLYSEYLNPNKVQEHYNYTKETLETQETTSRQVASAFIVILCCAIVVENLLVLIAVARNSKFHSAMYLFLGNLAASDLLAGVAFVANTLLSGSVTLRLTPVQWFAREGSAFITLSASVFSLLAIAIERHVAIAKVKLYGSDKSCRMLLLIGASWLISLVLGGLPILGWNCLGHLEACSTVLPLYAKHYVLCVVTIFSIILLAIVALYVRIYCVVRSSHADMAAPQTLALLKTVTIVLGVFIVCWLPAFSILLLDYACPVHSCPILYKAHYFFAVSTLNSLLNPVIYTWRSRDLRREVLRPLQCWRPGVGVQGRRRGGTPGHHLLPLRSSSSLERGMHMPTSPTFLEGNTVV
Sequence of human sphingosine-1-phosphate receptor 3 (S1P3) (Q99500 whole entry): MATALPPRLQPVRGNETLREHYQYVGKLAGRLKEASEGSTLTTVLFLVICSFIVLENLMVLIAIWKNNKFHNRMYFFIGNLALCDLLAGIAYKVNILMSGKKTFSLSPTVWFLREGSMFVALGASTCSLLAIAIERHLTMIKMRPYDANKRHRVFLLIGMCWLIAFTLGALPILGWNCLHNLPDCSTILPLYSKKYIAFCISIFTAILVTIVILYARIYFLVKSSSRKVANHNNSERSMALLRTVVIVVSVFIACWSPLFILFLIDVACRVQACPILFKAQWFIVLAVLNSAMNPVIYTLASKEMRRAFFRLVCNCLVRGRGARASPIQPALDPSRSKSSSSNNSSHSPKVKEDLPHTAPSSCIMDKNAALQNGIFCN
Sequence of sphingosine-1-phosphate receptor 5 (S1P5) (Q9H228 whole entry): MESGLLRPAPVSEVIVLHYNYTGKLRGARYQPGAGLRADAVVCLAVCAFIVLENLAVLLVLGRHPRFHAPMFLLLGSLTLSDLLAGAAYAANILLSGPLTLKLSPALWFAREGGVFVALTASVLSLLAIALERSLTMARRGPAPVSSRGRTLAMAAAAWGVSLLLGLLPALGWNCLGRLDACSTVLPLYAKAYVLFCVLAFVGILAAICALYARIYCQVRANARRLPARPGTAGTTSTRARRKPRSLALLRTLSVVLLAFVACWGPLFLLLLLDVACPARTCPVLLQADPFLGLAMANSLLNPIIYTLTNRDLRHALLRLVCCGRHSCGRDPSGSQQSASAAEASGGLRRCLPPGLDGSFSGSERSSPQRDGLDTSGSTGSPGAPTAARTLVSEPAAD

| Structure (SMILES) | hS1P1 B-arrestin2 pEC50 [1] | hS1P1 cAMP pEC50 [2] | hS1P2 IP-one pEC50 [3] | hS1P3 cAMP pEC50 [4] | inhibition in vivo at 3 mg/kg [6] [%] | also measured |
| --- | --- | --- | --- | --- | --- | --- |
| CCC1(CC)CC(=O)c2cc(-c3nc(-c4ccc5[nH]c(=O)oc5c4)no3)ccc2O1 [Compound 445, 6-(5-(2,2-diethyl-4-oxochroman-6-yl)-1,2,4-oxadiazol-3-yl)benzo[d]oxazol-2(3H)-one] | >5 | >6.5 | >5.0 | <5.0 | – | – |
| CCC1(CC)CC(=O)c2cc(-c3nc(-c4ccc5[nH]ncc5c4)no3)ccc2O1 [Compound 152, 6-(3-(1H-indazol-5-yl)-1,2,4-oxadiazol-5-yl)-2,2-diethylchroman-4-one] | >5 | <6.5 | <5.0 | <5.0 | – | hS1P1 B-arrestin2 SPAN [1, 7]: >75; hS1P1 cAMP SPAN [2, 7]: >75; hS1P2 IP-one SPAN ([3]; efficacy normalized to CYM5520): <50; hS1P3 cAMP SPAN [4, 8]: <50; hS1P5 cAMP SPAN [5, 8]: <50; hS1P5 cAMP pEC50 [5]: <5.0 |
| COc1cnccc1-c1nc(-c2ccc3c(ccn3C(C)C)c2)no1 [Compound 391, 3-(1-isopropyl-1H-indol-5-yl)-5-(3-methoxypyridin-4-yl)-1,2,4-oxadiazole] | >5 | >6.5 | >5.0 | >5.0 | – | hS1P5 cAMP pEC50 [5]: >5.0 |
| COc1ccccc1-c1nnc(-c2ccc3c(c2)oc(=O)n3C)o1 [Compound 406, 6-[5-(2-methoxyphenyl)-1,3,4-oxadiazol-2-yl]-3-methyl-2,3-dihydro-1,3-benzoxazol-2-one] | >5 | >6.5 | <5.0 | <5.0 | – | hS1P5 cAMP pEC50 [5]: <5.0 |
| CC(C)Nc1ccc(-c2nc(-c3ccc4oc(=O)[nH]c4c3)no2)cc1C#N [Compound 422, 2-(isopropylamino)-5-(3-(2-oxo-2,3-dihydrobenzo[d]oxazol-5-yl)-1,2,4-oxadiazol-5-yl)benzonitrile] | >5 | >6.5 | >5.0 | >5.0 | – | – |
| Cc1ccncc1-c1noc(-c2ccc3c(c2)nnn3C2CCC2)n1 [Compound 417, 1-cyclobutyl-5-[3-(4-methylpyridin-3-yl)-1,2,4-oxadiazol-5-yl]-1H-1,2,3-benzotriazole] | >5 | >6.5 | >5.0 | <5.0 | – | hS1P5 cAMP pEC50 [5]: <5.0 |
| N#Cc1cc(-c2nnc(-c3ccc4[nH]cnc4c3)o2)ccc1NC(CF)CF [Compound 600, 5-[5-(1H-1,3-benzodiazol-5-yl)-1,3,4-oxadiazol-2-yl]-2-[(1,3-difluoropropan-2-yl)amino]benzonitrile] | >5 | >6.5 | – | – | < 50 | Emax [1, 7]: > 75%; Emax [2, 7]: > 75% |
| CCC1(CC)CC(=O)c2cc(-c3nc(-c4ccc(NC(C)=O)cc4OC(F)(F)F)no3)ccc2O1 [Compound 584, N-{4-[5-(2,2-diethyl-4-oxo-3,4-dihydro-2H-1-benzopyran-6-yl)-1,2,4-oxadiazol-3-yl]-3-(trifluoromethoxy)phenyl}acetamide] | >5 | >6.5 | – | – | > 50 | Emax [1, 7]: > 75%; Emax [2, 7]: > 75% |
| CC(C)Nc1ccc(-c2nnc(-c3ccc4ncn(C)c4c3)o2)cc1C#N [Compound 579, 5-[5-(1-methyl-1H-1,3-benzodiazol-6-yl)-1,3,4-oxadiazol-2-yl]-2-[(propan-2-yl)amino]benzonitrile] | >5 | >6.5 | – | – | > 50 | – |
| CCC1(CC)CC(=O)c2cc(-c3nc(-c4ccc(NS(C)(=O)=O)cc4OC)no3)ccc2O1 [Compound 568, N-{4-[5-(2,2-diethyl-4-oxo-3,4-dihydro-2H-1-benzopyran-6-yl)-1,2,4-oxadiazol-3-yl]-3-methoxyphenyl}methanesulfonamide] | >5 | >6.5 | – | – | < 50 | – |
| CC(C)Nc1ccc(-c2nc(-c3ccc4c(c3)NC(=O)C4)no2)cc1C#N [Compound 496, 2-(isopropylamino)-5-(3-(2-oxoindolin-6-yl)-1,2,4-oxadiazol-5-yl)benzonitrile] | >5 | >6.5 | <5.0 | <5.0 | – | – |
| CCC1(CC)CC(=O)c2cc(-c3nc(-c4cccnc4C(F)(F)F)no3)ccc2O1 [Compound 562, 2,2-diethyl-6-(3-(2-(trifluoromethyl)pyridin-3-yl)-1,2,4-oxadiazol-5-yl)chroman-4-one] | >5 | >6.5 | – | – | > 50 | – |
| CC(F)CNc1ccc(-c2nc(-c3ccc4c(c3)CCC(=O)N4)no2)cc1C#N (stereo not drawn) [Compound 348, 2-[(2-fluoropropyl)amino]-5-[3-(2-oxo-1,2,3,4-tetrahydroquinolin-6-yl)-1,2,4-oxadiazol-5-yl]benzonitrile] | >5 | >6.5 | – | – | > 50 | Emax [1, 7]: > 75%; Emax [2, 7]: > 75% |
| CC(C)Nc1ccc(-c2nnc(-c3cccc4[nH]cnc34)o2)cc1C#N [Compound 585, 5-[5-(1H-1,3-benzodiazol-4-yl)-1,3,4-oxadiazol-2-yl]-2-[(propan-2-yl)amino]benzonitrile] | >5 | >6.5 | – | – | < 50 | – |
| N#Cc1cc(-c2nc(-c3ccc4c(c3)CC(=O)N4)no2)ccc1NCC1CC1 [Compound 210, 2-((cyclopropylmethyl)amino)-5-(3-(2-oxoindolin-5-yl)-1,2,4-oxadiazol-5-yl)benzonitrile] | >5 | >6.5 | – | – | – | Emax [1, 7]: > 75%; Emax [2, 7]: > 75%; inhibition in vivo at 1 mg/kg ([6]; sc, 0.5 h, 1 mg/kg s.c., tested 30 min after dosing, read-out: Screen @ 1 mg/kg sc (% MPE)): < 50% |
| Cc1nc2cc(-c3nnc(-c4ccc(NC(C)C)c(C#N)c4)o3)ccc2[nH]1 [Compound 560, 5-[5-(2-methyl-1H-1,3-benzodiazol-5-yl)-1,3,4-oxadiazol-2-yl]-2-[(propan-2-yl)amino]benzonitrile] | >5 | >6.5 | – | – | > 50 | – |
